Where “and” joins values, the source holds several entries; their conditions need not be identical. Equal entries are not always repeated. Structures can show the parent of a compound that is named as a salt.
Assays:
activated human C1 = activated human C1 (Homo sapiens, UniProt P09871); assay: Test, Code 026 (C1 inhibitor); assay type: biochemical; details: for COMPLEMENT INHIBITING ACTIVITY (WELLS) CODE 026 / LOGARITHMIC DIFFERENCE EXPRESSED AS WELLS / INTRINSIC THERAPEUTICAL INDEX: Table II; for COMPLEMENT INHIBITING ACTIVITY (WELLS) CODE 026: highest active serial dilution; for 026 Wells: Table I, serial two-fold dilution assay, higher well number indicates higher activity; for LOGARITHMIC DIFFERENCE EXPRESSED AS WELLS: Code 026 wells minus AC wells (base 2); for INTRINSIC THERAPEUTICAL INDEX: antilogarithm (base 2) of difference between Code 026 wells and AC wells
Description: (§1) An active inhibitor protects C2 from C1 and C4; (ii) Test, Code 035 (C3- C9 inhibitor) - This test determines the ability of the late components of human complement (C3-C9) to lyse EAC 142 in the presence of appropriate dilutions of the test compound. An active inhibitor protects EAC 142 from lysis by human C3-C9; (iii) Test, Code 036 (C-Shunt inhibitor) - In this test human erythrocytes rendered fragile are lysed in autologous serum via the shunt pathway activated by cobra venom factor in the presence of appropriate dilutions of the test compound. Inhibition of the shunt pathway results in failure of lysis; (iv) Forssman Vasculitis Test - Here, the well known complement dependent lesion, Forssman vasculitis, is produced in guinea pigs by intradermal injection of rabbit anti-forssman antiserum. The lesion is measured in terms of diameter, edema and hemorrhage and the extent to which a combined index of these is inhibited by prior intraperitoneal injection of the test compound at 200 mg/kg in then reported, unless otherwise stated; (v) Forssman Shock Test -- Lethal shock is produced in guinea pigs by an i.v. injection of anti-Forssman antiserum and the harmonic mean death time of treated guinea pigs is compared with that of simultaneous controls; (vi) Complement Level Reduction Test -- In this test, the above dosed guinea pigs, or others, are bled for serum and the complement level is determined in undiluted serum by the capillary tube method of U.S. Pat. No. 3,876,376 and compared to undosed control guinea pigs; and (vii) Cap 50 Test -- Here, appropriate amounts of the test compound are added to a pool of guinea pig serum in vitro, after which the undiluted serum capillary tube assay referred to above is run. The concentration of compound inhibiting 50% is reported.

Citrated sheep plasma = assay: In vitro anti-coagulant activity (AC) test; details: for A.C. Wells: Table I, clot inhibition, recalcified citrated sheep plasma, serial two-fold dilutions; for ANTI-COAGULANT ACTIVITY (WELLS) AC: Table II, highest active serial dilution
Protocol: The sheep RBC'S, kept in suspension throughout the clotting incubation time, become enmeshed in the fibrin matrix if a clot forms. Upon centrifugation of the plate untrapped RBC's form buttons, the sizes of which correspond to the degree of clot inhibition; this providing a measure of anti-coagulant activity (AC).

[1] = system: shunt pathway activated by cobra venom factor; assay: Test, Code 036 (C-Shunt inhibitor); assay type: cell-based; details: Table I, lysis of fragile human erythrocytes in autologous serum, serial two-fold dilution assay, higher well number indicates higher activity
Description: as §1

[2] = system: late components of human complement (C3-C9); assay: Test, Code 035 (C3-C9 inhibitor); assay type: biochemical; details: Table I; lysis of EAC 142; serial two-fold dilution assay, higher well number indicates higher activity
Description: as §1

Compound | COMPLEMENT INHIBITING ACTIVITY (WELLS) CODE 026 (activated human C1; Sodium Salt) | A.C. Wells (Citrated sheep plasma; Sodium Salt) | ANTI-COAGULANT ACTIVITY (WELLS) AC (Citrated sheep plasma; Sodium Salt) | 026 Wells (activated human C1) | LOGARITHMIC DIFFERENCE EXPRESSED AS WELLS (activated human C1) | INTRINSIC THERAPEUTICAL INDEX (activated human C1) | COMPLEMENT INHIBITING ACTIVITY (WELLS) CODE 026 (activated human C1) | A.C. Wells (Citrated sheep plasma) | ANTI-COAGULANT ACTIVITY (WELLS) AC (Citrated sheep plasma) | 036 Wells [1] | 035 Wells [2] | 036 Wells ([1]; Sodium Salt)
O=S(=O)(O)OC[C@H]1O[C@H](O[C@H]2[C@H](OS(=O)(=O)O)[C@@H](OS(=O)(=O)O)C(OS(=O)(=O)O)O[C@@H]2COS(=O)(=O)O)[C@H](OS(=O)(=O)O)[C@@H](OS(=O)(=O)O)[C@@H]1OS(=O)(=O)O (stereo partly drawn) [Maltose Poly(H--) sulfate sodium salt, Maltose Poly (H-)Sulfate Sodium Salt] | +12 WELLS | +2 Wells | +2 WELLS |  |  |  |  |  |  |  |  | 
Maltotriose Poly(H-)sulfate Trimethylamine Salt |  |  |  | +7 Wells | +8 WELLS | 256 | +7 WELLS | -1 Wells | -1 WELLS | Neg. | Neg. | 
O=S(=O)(O)OC[C@H]1O[C@H](O[C@H]2[C@H](OS(=O)(=O)O)[C@@H](OS(=O)(=O)O)[C@@H](O[C@H]3[C@H](OS(=O)(=O)O)[C@@H](OS(=O)(=O)O)[C@@H](O[C@H]4[C@H](OS(=O)(=O)O)[C@@H](OS(=O)(=O)O)C(OS(=O)(=O)O)O[C@@H]4COS(=O)(=O)O)O[C@@H]3COS(=O)(=O)O)O[C@@H]2COS(=O)(=O)O)[C@H](OS(=O)(=O)O)[C@@H](OS(=O)(=O)O)[C@@H]1O[C@H]1O[C@H](COS(=O)(=O)O)[C@@H](O[C@H]2O[C@H](COS(=O)(=O)O)[C@@H](O[C@H]3O[C@H](COS(=O)(=O)O)[C@@H](OS(=O)(=O)O)[C@H](OS(=O)(=O)O)[C@H]3OS(=O)(=O)O)[C@H](OS(=O)(=O)O)[C@H]2OS(=O)(=O)O)[C@H](OS(=O)(=O)O)[C@H]1OS(=O)(=O)O (stereo partly drawn) [Maltoheptaose Poly(H-)sulfate Sodium Salt] |  |  |  |  |  |  |  |  |  |  |  | 6 Wells and 5 Wells
Maltotriose Poly(H-)sulfate Sodium Salt |  |  |  | +9 Wells | +10 WELLS | 1024 | +9 WELLS | -1 Wells | -1 WELLS | Neg. | Neg. | 
O=S(=O)(O)OC[C@H]1O[C@H](O[C@H]2[C@H](OS(=O)(=O)O)[C@@H](OS(=O)(=O)O)C(OS(=O)(=O)O)O[C@@H]2COS(=O)(=O)O)[C@H](OS(=O)(=O)O)[C@@H](OS(=O)(=O)O)[C@@H]1OS(=O)(=O)O (stereo partly drawn) [Maltose Poly(H-)Sulfate Trimethylamine Salt] |  |  |  |  | +10 WELLS | 1024 | +8 WELLS | -2 Wells | -2 WELLS | Neg. | Neg. | 
O=S(=O)(O)OC[C@H]1O[C@H](O[C@H]2[C@H](OS(=O)(=O)O)[C@@H](OS(=O)(=O)O)[C@@H](O[C@H]3[C@H](OS(=O)(=O)O)[C@@H](OS(=O)(=O)O)[C@@H](O[C@H]4[C@H](OS(=O)(=O)O)[C@@H](OS(=O)(=O)O)C(OS(=O)(=O)O)O[C@@H]4COS(=O)(=O)O)O[C@@H]3COS(=O)(=O)O)O[C@@H]2COS(=O)(=O)O)[C@H](OS(=O)(=O)O)[C@@H](OS(=O)(=O)O)[C@@H]1O[C@H]1O[C@H](COS(=O)(=O)O)[C@@H](O[C@H]2O[C@H](COS(=O)(=O)O)[C@@H](O[C@H]3O[C@H](COS(=O)(=O)O)[C@@H](OS(=O)(=O)O)[C@H](OS(=O)(=O)O)[C@H]3OS(=O)(=O)O)[C@H](OS(=O)(=O)O)[C@H]2OS(=O)(=O)O)[C@H](OS(=O)(=O)O)[C@H]1OS(=O)(=O)O (stereo partly drawn) [Maltoheptaose Poly(H-)sulfate Trimethylamine Salt] |  |  |  | +9 Wells | +5 WELLS |  | +9 WELLS | +4 Wells | +4 WELLS | 5 Wells |  | 
